We go through four compounds from patent US9066894B2, “Carbohydrate binding molecules” (priority 2008, dated 2015).

The assay concerns the target isolated CBM40 from V. cholerae sialidase (Vibrio cholerae serotype O1, UniProt P0C6E9). As to conditions: ITC, 25° C.; for n (number of binding sites): 10 mM HEPES pH7.4, 0.15M NaCl.

Where “and” joins values, the source holds several entries; their conditions need not be identical. Equal values may be shown once.

isolated CBM40 from V. cholerae sialidase, sequence (P0C6E9 25-216): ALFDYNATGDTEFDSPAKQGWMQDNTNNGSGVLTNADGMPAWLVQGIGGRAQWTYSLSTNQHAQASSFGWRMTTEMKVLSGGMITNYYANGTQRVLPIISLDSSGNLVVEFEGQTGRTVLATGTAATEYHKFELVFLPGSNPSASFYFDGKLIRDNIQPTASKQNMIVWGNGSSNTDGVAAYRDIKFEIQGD

`CC(=O)N[C@H]1[C@H]([C@H](O)[C@H](O)CO)O[C@@](O[C@H]2[C@@H](O)[C@@H](CO)O[C@@H](O[C@H]3[C@H](O)[C@@H](O)C(O)O[C@@H]3CO)[C@@H]2O)(C(=O)O)C[C@@H]1O` (stereo partly drawn) [3′SL, 3′sialyllactose]: the Ka is listed as 5.48 ± 0.05 10^−4M; the Kd (in general, the constant that tells how readily two partners part at equilibrium) was 18 µM; the TΔS was -9.8 kcal/mol; the ΔG was -6.5 kcal/mol. Also, the ΔH was -16.3 ± 0.05 kcal/mol and the “n (number of binding sites)” value was 0.96 ± 0.002.
Take `CC(=O)N[C@H]1[C@H]([C@H](O)[C@H](O)CO)O[C@@](OC[C@H]2O[C@@H](O[C@H]3[C@H](O)[C@@H](O)[C@H](O)O[C@@H]3CO)[C@H](O)[C@@H](O)[C@H]2O)(C(=O)O)C[C@@H]1O` [6′SL, 6′sialyllactose]: the Ka is 5.16 ± 0.03 10^−4M; the affinity, expressed as Kd, was 19 µM; the TΔS was -3.5 kcal/mol; the ΔG is -6.4 kcal/mol. Besides, the ΔH is -9.9 ± 0.002 kcal/mol and the “n (number of binding sites)” value came out at 1.02 ± 0.001.
As for `CC(=O)N[C@H]1[C@H]([C@H](O)[C@H](O)CO)O[C@@](O[C@H](CO)[C@@H](O)[C@@H]2O[C@@](O[C@H]3[C@@H](O)[C@@H](CO)O[C@@H](O[C@H]4[C@H](O)[C@@H](O)C(O)O[C@@H]4CO)[C@@H]3O)(C(=O)O)C[C@H](O)[C@H]2NC(C)=O)(C(=O)O)C[C@@H]1O` (stereo partly drawn) [DSL, disialyllactose], the Ka is 10.2 ± 0.01 10^−4M, binding was put at a Kd of 9.8 µM, the TΔS is -5.7 kcal/mol and the ΔG is -6.8 kcal/mol. Further, the ΔH is -12.5 kcal/mol and -12.5 ± 0.003 kcal/mol; the “n (number of binding sites)” value was 0.92 and 0.92 ± 0.001.
For `CC(=O)N[C@H]1[C@H](O[C@H]2[C@@H](O)[C@@H](CO)O[C@@H](O[C@@H]([C@H](O)[C@@H](O)C=O)[C@H](O)CO)[C@@H]2O)O[C@H](CO[C@]2(C(=O)O)C[C@H](O)[C@@H](NC(C)=O)[C@H]([C@H](O)[C@H](O)CO)O2)[C@@H](O)[C@@H]1O[C@@H]1O[C@H](CO)[C@H](O)[C@H](O[C@]2(C(=O)O)C[C@H](O)[C@@H](NC(C)=O)[C@H]([C@H](O)[C@H](O)CO)O2)[C@H]1O` [DSLNT, disialyl-lacto-N-tetraose], the Ka is recorded as 7.8 ± 0.06 10^−4M, binding was put at a Kd of 13 µM, the TΔS is -17.3 kcal/mol and the ΔG is -6.7 kcal/mol. In addition, the ΔH was -24 kcal/mol and -24.0 ± 0.007 kcal/mol; the “n (number of binding sites)” value is 0.57 and 0.57 ± 0.001.
